From US20260034091A1, “Compositions and Methods for Treating Metabolic Disorders” (The Regents of the University of California, priority 2022, published 2026)

How the values were obtained:
chow diet fed mice = assay: Tolerability and toxicity of TOFA in ad libitum fed chow mice; format: in vivo, C57BL/6J male mice; settings: oral gavage
Method: Eleven-week-old C57BL/6J male mice were fed with PicoLab Rodent Diet (Purina 5053), or chow diet, ad libitum while being treated with either control or 125 mg/kg, BID by oral gavage for three weeks. Mice weights were tracked during the entire time course. Upon study termination, serum and liver samples were collected. Serum biomarkers such as blood urea nitrogen (BUN) and creatinine were assessed by commercially available kits (abcam83362 and Cayman700460, respectively). Additionally, hepatic and serum triglyceride and cholesterol levels were measured by commercially available kits (abcam65336 and abcam65390, respectively).

PPAR signaling pathway = assay: Transcriptional analysis of liver samples from 60% HFD mouse model of diet induced obesity; format: in vivo, C57BL/6J male mice
Method: Six-week old C57BL/6J male mice were fed with a 60 kcal % fat diet (Research Diets A12492i) for seven weeks before introduction of either control or 125 mg/kg, BID, initial loading dose of TOFA daily via controlled oral gavage for one week (FIG. 2A). Mice were then treated with either vehicle (control) or 62.5 mg/kg, BID, maintenance dose of TOFA daily via oral gavage for three additional weeks. Upon study termination at 11 weeks, liver samples were collected. Total RNA was extracted from liver tissues (Qiagen RNeasy kit 74106), cDNA libraries were constructed (Roche KAPA HyperPrep kit), sequenced on the NovaSeq6000 platform (Novogene), and a downstream analysis pipeline was performed. Differentially expressed genes (DEGs) were defined by at least one log2-fold change (2-fold in linear scale) with an FDR cutoff of 0.05. For validation, total RNA was used to prepare CDNA (BioRAD iScript™ Reverse Transcription) according to manufacturer's protocol and qPCR was performed with fast SYBR Green Mix (ThermoFisher A25742) on the QuantStudio6 System (Applied Biosystems).

[1] = tested on: CDAHFD induced late stage NAFLD/NASH in mice; assay: Rescue effect of TOFA in CDAHFD induced late-stage NAFLD/NASH progression; format: in vivo, C57BL/6 male mice; settings: 250 mg/kg daily, four weeks
Method: Six-week-old C57BL/6 male mice were fed with a L-Amino Acid Diet With 60 kcal % Fat With 0.1% Methionine and No Added Choline (Research Diets A06071302i) for eight weeks before introduction of either vehicle (control) or 250 mg/kg of TOFA daily via twice daily controlled oral gavage for an additional four weeks (FIG. 3A). Upon study termination at 12 weeks, serum and liver samples were collected. Serum liver damage biomarkers, ALT and AST, were measured by commercially available kits (abcam105134 and abcam 105135, respectively). Hepatic and serum triglyceride levels were measured from a commercially available kit (abcam65336). Liver samples were fixed in 4% paraformaldehyde and embedded in paraffin blocks for sectioning and subsequently stained with hematoxylin and eosin (H&E) or Picrosirius Red with a fast green dye background. Frozen fresh liver tissue was embedded in OCT, sectioned, and subsequently stained with Oil Red O.

[2] = tested on: 60% HFD diet-induced obesity in mice; assay: Dose-dependent effect of TOFA in 60% HFD mouse model of diet-induced obesity (DIO); format: in vivo, C57BL/6J male mice; settings: for body weight: oral
Method: Six-week-old C57BL/6J male mice were fed with a 60 kcal % fat diet (Research Diets A12492i) for ten weeks before introduction of either vehicle (control) or TOFA, at varying doses, for an additional two weeks. TOFA was orally administered in doses of either 12.5, 25, 62.5, or 125 mg/kg, BID. Mice weights and food intake were monitored during the treatment time course. Prior to harvest, mice underwent whole body composition analysis (EchoMRI™ 2012). Upon study termination at 12 weeks, serum and liver samples were collected. Hepatic and serum triglyceride and cholesterol levels were measured by commercially available kits (abcam65336 and abcam65390, respectively). Additional liver samples were fixed in 4% paraformaldehyde and embedded in paraffin blocks for sectioning and subsequently stained with hematoxylin and eosin (H&E).

[3] = tested on: CDAHFD diet-induced NAFLD/NASH in wild-type mice; assay: TOFA in wild-type mice on CDAHFD (comparison to PPARA KO); format: in vivo, C57BL/6J (WT) mice
Method: Six-week-old genetic PPARA knockout (PPARA KO) male mice were fed with a L-amino acid diet with 60 kcal % fat with 0.1% methionine and no added choline (CDAHFD; Research Diets A06071302i) for three weeks or fed with a 60 kcal % fat diet (DIO; Research Diets A12492i) for eight weeks before introduction of either vehicle (control) or 125 mg/kg of TOFA, BID, via oral gavage for an additional two weeks (FIG. 11A and FIG. 11J, respectively). C57BL/6J (WT) mice were fed with the CDAHFD and underwent similar experimental conditions and time course. Mice weights and adverse events were monitored during the treatment time course. Upon study termination, serum and liver samples were collected. Serum liver damage biomarkers, ALT and AST, were measured by commercially available kits (abcam105134 and abcam 105135, respectively). Hepatic and serum triglyceride levels were measured from a commercially available kit (abcam65336). […] Quantitative PCR (qPCR) was performed with fast SYBR Green Mix (ThermoFisher A25742) on the QuantStudio6 System (Applied Biosciences). Protein expression levels of liver samples were measured by western blot using antibodies against ACC1/2 (CST3662, 1:1000), VLDLR (AF2258, 1:2000), CPT1A (CST12252, 1:1000), PPARA (abcam126285, 1:1000) and beta-tubulin (CST2146, 1:1000). […]

[4] = 125 mg/kg, BID, three weeks, chow diet
[5] = 125 mg/kg BID 1 week then 62.5 mg/kg BID 3 weeks, oral gavage
[6] = scored per Kleiner, et al. (2005)
[7] = 12.5, 25, 62.5, or 125 mg/kg, BID, two weeks

CCCCCCCCCCCCCCOc1ccc(C(=O)O)o1 [TOFA, 5-(Tetradecyloxy)-2-furoic acid]
tolerability (chow diet fed mice; 125 mg/kg, BID, three weeks): well tolerated
body weight (chow diet fed mice; [4]): no observed weight change
cholesterol levels in serum (chow diet fed mice; [4]): No changes
cholesterol levels in the liver (chow diet fed mice; [4]): No changes
liver triglyceride levels (chow diet fed mice; [4]): observed decrease
serum blood urea nitrogen (BUN) (chow diet fed mice; [4]): no drug-induced kidney damage
serum creatinine (chow diet fed mice; [4]): no drug-induced kidney damage
serum triglyceride levels (chow diet fed mice; [4]): no significant change
oral bioavailability (chow diet fed mice; mice): orally bioavailable
genes in the PPAR signaling pathway (BioPlanet 2019 database) (PPAR signaling pathway; [5]): upregulated various genes under PPAR transcriptional control
highest upregulated genes (RNAseq of liver) (PPAR signaling pathway; [5]): canonical PPAR-alpha target genes
transcriptional regulatory relationship analysis of upregulated genes (TRRUST Transcription Factors 2019) (PPAR signaling pathway; [5]): PPARA is one of the major acting factors in transcriptional regulation
downstream PPAR target genes by RT-qPCR (fatty acid beta-oxidation, acyl-CoA processing, lipoprotein uptake and metabolism) (PPAR signaling pathway; liver mRNA relative to r18s mRNA): upregulated
cytoplasmic vacuolations by H&E staining ([1]; liver sections): decreased cytoplasmic vacuolations
fibrosis by Picrosirius Red staining ([1]; liver sections): decreased fibrosis
lipid content by Oil Red O staining ([1]; liver sections): reduction in lipid content
ballooning (histopathological score) [1, 6]: reductions
degree of hepatic steatosis (histopathological score) [1, 6]: decreased degree of hepatic steatosis
fibrosis (histopathological score) [1, 6]: reductions
inflammation (histopathological score) [1, 6]: reductions
liver triglyceride content ([1]; twice daily oral gavage): reduced
serum ALT activity levels ([1]; twice daily oral gavage): significant decrease
serum AST levels ([1]; twice daily oral gavage): averaged reduction
serum triglyceride levels ([1]; twice daily oral gavage): no increase
food intake [2, 7]: remained constant
hepatic steatosis (H&E liver sections) [2, 7]: improvement in hepatic steatosis in a dose-dependent manner
serum cholesterol levels (HDL and VLDL/LDL fractions) [2, 7]: dose-dependent decrease
serum triglyceride levels [2, 7]: dose-dependent decrease
overall lean mass (EchoMRI) ([2]; all treatment groups): no changes
body weight ([2]; highest dose 125 mg/kg, BID, two weeks): weight loss
fat mass as a percentage of body weight (EchoMRI) ([2]; highest dose treatment group (125 mg/kg, BID)): decrease in fat mass as a percentage of body weight
liver triglyceride levels ([2]; highest dosing treatment regimens): striking decreases
body weight ([2]; lower doses (12.5, 25, 62.5 mg/kg, BID), two weeks): smaller or negligible changes in body weight
Cpt1a mRNA (RT-qPCR) ([3]; 125 mg/kg BID, two weeks): induction of Cpt1a mRNA
protein expression levels of CPT1A, VLDLR, and ACC1 (western blot) ([3]; relative to vehicle control): increased
